The values below come from paper PMC3086806, “Mining a Cathepsin Inhibitor Library for New Antiparasitic Drug Leads” (PLoS Neglected Tropical Diseases, 2011).

Usually Ki stands for the dissociation constant of the complex between target and ligand, obtained from inhibition or displacement. As usually defined, the GI50 is the concentration that inhibits growth by half. In general, IC50 refers to the midpoint of a concentration-inhibition curve.

Data set [1] relates to Jurkat cells (clone E6-1). The data set is described as follows: Jurkat cell cytotoxicity assay. It counts as cell-based. The note with it: 40 hr. As for the experimental part: (§1) Jurkat cells (clone E6-1) were grown in complete RPMI-1640 medium containing 10% FBS, 50 U/mL penicillin and 50 µg/mL streptomycin (Invitrogen) at 37°C under a humidified atmosphere and 5% CO2. For cytotoxicity testing, cells were diluted to 1×10^5 per ml in complete RPMI-1640 medium. Test compound stocks were prepared in 100% DMSO and screened at 10 µM against cells (1×10^4 cells per well) in sterile Greiner 96-well flat white opaque culture plates (0.5% final DMSO concentration). The 0% inhibition control wells contained 0.5% DMSO while 100% inhibition control wells contained 40 µM staurosporine. After compound addition, plates were incubated for 40 hr at 37°C. At the end of the incubation period, 50 µL of CellTiter-Glo™ reagent (Promega Inc., Madison, WI, USA) was added to each well and plates were placed on an orbital shaker at room temperature for 2 min to induce lysis. After a further 10 min incubation without shaking to stabilize the signal, the ATP-bioluminescence of each well was determined using an Analyst HT plate reader (Molecular Devices, Sunnyvale, CA, USA). Calculations of percentage inhibition and IC50 were performed similar to those in the T. brucei brucei assay.

Data set [2] in a line: Jurkat cell cytotoxicity assay. Type of data set: cell-based. The note with it: human, Jurkat cells (clone E6-1), read-out: Cytotoxicity (% inhibition at 10 µM) Jurkat cells. How it is done: as §1
Another data set concerns the target human cathepsin L. The arrangement: method as in data provided by Celera Genomics. The note with it: historical data; ref data provided by Celera Genomics; read-out: Ki catL; cited from earlier work.
The subject of data set [3] is intracellular T. cruzi (CA-I/72) in BESM cells. The data set is described as follows: T. cruzi amastigote growth inhibition assay. Type of data set: cell-based. The conditions noted are these: Trypanosoma cruzi; infected BESM cells, 72 hours. How it is done:
(§2) The growth inhibition assay for the intracellular T. cruzi was conducted in 96-well plate format as described previously. Briefly, bovine embryo skeletal muscle (BESM) cells (2×10^3/well), seeded overnight, were infected with CA-I/72 T. cruzi trypomastigotes (2×10^3/well). Sixteen hours post-infection, test compounds (serial dilution concentrations starting from 20 µM) were added and assay plates were incubated for an additional 72 hours at 37°C with 5% CO2. Cells were then washed once in PBS, fixed with 4% paraformaldehyde and stained with DNA fluorescent dye DAPI (4′ 6-diamidino-2-phenylindole). The assay plates were then imaged in the IN Cell Analyzer 2000 (GE Healthcare) with the excitation and emission filters set of 350 nm and 460 nm, respectively, to detect DAPI signals. The feature extraction module in IN Cell Developer Toolbox 1.7 software was used to count host nuclei and parasite kinetoplasts by size difference.

The test system of data set [4] is T. brucei brucei clone 427-221a bloodstream forms. Briefly: T. brucei brucei growth inhibition assay. It counts as cell-based. The note with it: Trypanosoma brucei; 40 hours. As for the experimental part: The growth inhibition assay for T. brucei brucei was conducted as described previously. Bloodstream forms of the monomorphic T. brucei brucei clone 427-221a were grown in complete HMI-9 medium containing 10% FBS, 10% Serum Plus medium (Sigma Inc. St. Louis Mo. USA), 50 U/mL penicillin and 50 µg/mL streptomycin (Invitrogen) at 37°C under a humidified atmosphere and 5% CO2. […] 5 µL of each dilution was added to 95 µL of diluted parasites (1×10^4 cells per well) in sterile Greiner 96-well flat white opaque culture plates such that the final DMSO concentration was 0.5%. The 0% inhibition control wells contained 0.5% DMSO while 100% inhibition control wells contained 50 µM thimerosal (Sigma). After compound addition, plates were incubated for 40 hours at 37°C. At the end of the incubation period, 50 µL of CellTiter-Glo™ reagent (Promega Inc., Madison, WI, USA) was added to each well and plates were placed on an orbital shaker at room temperature for 2 min to induce lysis. After an additional 10 min incubation without shaking to stabilize the signal, the ATP-bioluminescence of each well was determined using an Analyst HT plate reader (Molecular Devices, Sunnyvale, CA, USA). Raw values were converted to log10 and percentage inhibition calculated relative to the controls. IC50 curve fittings were performed with Prism 4 software as above.

The test system of data set [5] is bovine embryo skeletal muscle (BESM) cells. Briefly: Toxicity toward host BESM cells in the T. cruzi assay. It counts as cell-based. The note with it: 20 µM. As for the experimental part:
as §2
(§3) All falcipain-3 inhibitors were also tested against falcipain-2. […] The entire library was examined for cytotoxicity to a mammalian cell line (Jurkat) at a concentration of 10 µM, and those compounds studied in the T. cruzi assay were also evaluated for toxicity (at 20 µM) toward the host BESM cells used in that assay. […]

Another data set addresses T1, rhodesain (Trypanosoma brucei rhodesiense, UniProt Q95PM0).
T1 construct: made in house
Briefly: Rhodesain protease inhibition assay (Z-Phe-Arg-AMC). It counts as biochemical. As for the experimental part:
(§4) Recombinant cruzain, rhodesain, TbCatB, falcipain-2 and falcipain-3 were expressed as described previously, [39], [40], [41], [42]. Inhibitor stock solutions were prepared in DMSO and screened at 0.1 µM for cruzain and rhodesain, 1 µM for TbCatB and 50 nM for falcipain-3 (0.5% DMSO in assay). […] Protease inhibition assays for cruzain and rhodesain were carried out in 96 well plate format as described previously. Cruzain (4 nM), rhodesain (4 nM) or TbCatB (258 nM) was incubated with test compound in 100 mM sodium acetate, pH 5.5, containing 5 mM DTT and 0.01% Triton X-100 (buffer A), for 5 min at room temperature (the higher concentration of TbCatB was required due to its lower intrinsic activity against the fluorogenic substrate). Then buffer A containing Z-Phe-Arg-AMC (Bachem) was added to enzyme-compound mixture to give 10 µM substrate in a final assay volume of 200 µL. The rate of free AMC release was measured at excitation and emission wavelengths of 355 and 460 nm, respectively, with a microtiter plate spectrofluorimeter (SpectraMax M5, Molecular Devices) for 3 min. Percentage inhibition of test compound was calculated relative to the DMSO control (0% inhibition control). IC50 values were determined with Prism 4 software (GraphPad, San Diego, CA) using sigmoidal dose-response variable slope model.

The target in a further data set is human cathepsin B. The arrangement: method as in data provided by Celera Genomics. The note with it: historical data; ref data provided by Celera Genomics; read-out: Ki catB; cited from earlier work.
The next data set addresses T2, cruzain (Trypanosoma cruzi, UniProt P25779).
T2 construct: made in house
Briefly: Cruzain protease inhibition assay (Z-Phe-Arg-AMC). It counts as biochemical. As for the experimental part: as §4

The next data set addresses T3, TbCatB (Trypanosoma brucei, UniProt Q6R7Z5).
T3 construct: made in house
T3 sequence (Q6R7Z5 23-340): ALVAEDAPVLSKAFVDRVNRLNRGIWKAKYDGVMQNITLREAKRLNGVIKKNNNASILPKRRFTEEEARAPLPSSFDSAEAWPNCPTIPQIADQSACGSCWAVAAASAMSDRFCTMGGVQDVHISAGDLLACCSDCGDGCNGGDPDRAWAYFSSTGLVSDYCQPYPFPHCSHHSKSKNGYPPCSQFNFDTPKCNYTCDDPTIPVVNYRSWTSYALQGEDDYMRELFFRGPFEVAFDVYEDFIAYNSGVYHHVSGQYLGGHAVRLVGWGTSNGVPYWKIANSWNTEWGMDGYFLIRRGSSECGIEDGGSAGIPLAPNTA
The data set is described as follows: TbCatB protease inhibition assay (Z-Phe-Arg-AMC). Type of data set: biochemical. As for the experimental part: as §4

The nature of data set [6]: Toxicity toward host BESM cells in the T. cruzi assay. Type of data set: cell-based, bovine. The conditions noted are these: bovine; highest assay concentration 20 µM. How it is done: as §2, §3

T2 sequence (P25779 123-467): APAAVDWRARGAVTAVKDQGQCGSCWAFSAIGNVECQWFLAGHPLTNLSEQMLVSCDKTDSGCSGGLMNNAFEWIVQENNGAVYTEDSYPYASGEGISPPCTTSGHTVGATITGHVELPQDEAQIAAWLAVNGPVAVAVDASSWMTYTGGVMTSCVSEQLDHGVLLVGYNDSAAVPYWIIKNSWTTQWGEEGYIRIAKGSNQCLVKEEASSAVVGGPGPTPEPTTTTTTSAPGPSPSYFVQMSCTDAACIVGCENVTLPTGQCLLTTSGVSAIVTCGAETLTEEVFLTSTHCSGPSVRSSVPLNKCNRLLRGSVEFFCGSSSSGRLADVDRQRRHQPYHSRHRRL
T1 sequence (Q95PM0 entry or part of it): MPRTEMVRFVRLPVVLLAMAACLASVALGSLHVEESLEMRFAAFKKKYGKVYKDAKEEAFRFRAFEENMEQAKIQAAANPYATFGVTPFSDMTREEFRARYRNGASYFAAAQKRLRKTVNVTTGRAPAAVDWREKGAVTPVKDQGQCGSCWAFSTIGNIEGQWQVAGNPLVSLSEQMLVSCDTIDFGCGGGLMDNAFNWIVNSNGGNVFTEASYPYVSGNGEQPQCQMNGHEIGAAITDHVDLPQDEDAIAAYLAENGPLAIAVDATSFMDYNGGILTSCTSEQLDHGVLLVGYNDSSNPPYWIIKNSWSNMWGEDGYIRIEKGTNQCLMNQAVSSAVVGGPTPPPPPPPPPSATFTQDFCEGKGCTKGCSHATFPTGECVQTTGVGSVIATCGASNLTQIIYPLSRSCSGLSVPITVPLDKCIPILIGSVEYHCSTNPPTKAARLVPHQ

Take `CC(C)CC(NC(=O)c1ccc(-c2csc(Nc3ccncc3)n2)cc1)C(=O)NCCN(CC(C)C)CC(C)C` (stereo not drawn) [Compound 22]: in [1], the “Cytotoxicity (% inhibition at 10 µM) Jurkat cells” value is on record as “did not inhibit the growth”. Further, the cytotoxicity at 40 h, 10 µM in [2] is under 5%. Moreover, the inhibitory constant (Ki) on human cathepsin L was 71 nM; on human cathepsin B, 4500 nM. Moreover, the 50% growth inhibitory concentration (GI50) in [3] turned out to be 800 nM; in data set [4], 200 nM. The “Inhibition of growth of BESM cells” value in [5] is reported as about 90%. The IC50 against rhodesain came to 640 nM; at cruzain, 1600 nM.
On to `CCCCC(NC(=O)C(CCC)NC(c1ccc(-c2ccc(S(C)(=O)=O)cc2)cc1)C(F)(F)F)C(=O)c1nnc(-c2ccco2)o1` (stereo not drawn) [Compound 24], for which the IC50 against TbCatB was found to be 50 nM; on rhodesain it was 6 nM; on cruzain, 10 nM. Further, the cytotoxicity at 40 h, 10 µM in [2] is under 5%. Also, the Ki was 18 nM on human cathepsin L and 1.6 nM at human cathepsin B. Also, the GI50 stood at 7600 nM in [3] and 7000 nM in [4]. In addition, in [6], the concentration for 50% growth inhibition (GI50) at 72 h is over 20000 nM.
